Structures are written as SMILES.

Common to all, as to format: biochemical
The target in one assay is T1, CHK1 (h) (Homo sapiens, UniProt O14757).
T1 construct: purchased Upstate Ltd
T1 sequence (O14757 1-476): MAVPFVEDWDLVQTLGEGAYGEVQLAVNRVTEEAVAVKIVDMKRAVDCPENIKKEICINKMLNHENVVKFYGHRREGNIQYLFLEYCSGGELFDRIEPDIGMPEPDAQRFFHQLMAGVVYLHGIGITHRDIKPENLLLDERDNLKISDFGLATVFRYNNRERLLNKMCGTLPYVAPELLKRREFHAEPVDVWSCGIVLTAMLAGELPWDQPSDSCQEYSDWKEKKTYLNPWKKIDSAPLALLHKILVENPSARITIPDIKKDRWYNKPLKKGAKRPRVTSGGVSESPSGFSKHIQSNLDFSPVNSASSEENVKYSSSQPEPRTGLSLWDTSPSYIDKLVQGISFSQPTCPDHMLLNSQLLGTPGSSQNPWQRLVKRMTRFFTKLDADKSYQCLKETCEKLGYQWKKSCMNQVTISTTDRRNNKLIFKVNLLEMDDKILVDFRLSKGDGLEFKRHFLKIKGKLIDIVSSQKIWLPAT
In words: CHK1 (h) kinase assay (Upstate, 33P-ATP filtermat). The conditions noted are these: 100 uM of inhibitor; ATP 90 uM. Here is the method: (§1) The compounds of the invention prepared in Examples 1-32 were tested for kinase inhibition against a range of common protein kinases. All kinase assays were conducted at Upstate Ltd, Gemini Crescent, Dundee Technology Park, Dundee, DD2 1SW, UK in accordance with its standard protocols as follows:
In a final reaction volume of 25 μl, CHK1 (h) (5-10 mU) is incubated with 8 mM MOPS pH 7.0, 0.2 mM EDTA, 200 μM […], 10 mM MgAcetate and […]-33P-ATP] (specific activity approx. 500 cpm/pmol, concentration as required). The reaction is initiated by the addition of the MgATP mix. After incubation for 40 minutes at room temperature, the reaction is stopped by the addition of 5 μl of a 3% phosphoric acid solution. 10 μl of the reaction is then spotted onto a P30 filtermat and washed three times for 5 minutes in 75 mM phosphoric acid and once in methanol prior to drying and scintillation counting.
(§2) Data for compounds. ATP concentrations are: Arg=45 uM; abl=45 uM; AuroraA=15 uM; Chk1=90 uM; KDR=90 uM; P70S6=15 uM. Figures represent the % inhibition when tested at 100 uM of inhibitor.

In another assay the target is T2, p70S6K (h) (Homo sapiens, UniProt P23443).
T2 construct: purchased Upstate Ltd
T2 sequence (P23443 whole entry): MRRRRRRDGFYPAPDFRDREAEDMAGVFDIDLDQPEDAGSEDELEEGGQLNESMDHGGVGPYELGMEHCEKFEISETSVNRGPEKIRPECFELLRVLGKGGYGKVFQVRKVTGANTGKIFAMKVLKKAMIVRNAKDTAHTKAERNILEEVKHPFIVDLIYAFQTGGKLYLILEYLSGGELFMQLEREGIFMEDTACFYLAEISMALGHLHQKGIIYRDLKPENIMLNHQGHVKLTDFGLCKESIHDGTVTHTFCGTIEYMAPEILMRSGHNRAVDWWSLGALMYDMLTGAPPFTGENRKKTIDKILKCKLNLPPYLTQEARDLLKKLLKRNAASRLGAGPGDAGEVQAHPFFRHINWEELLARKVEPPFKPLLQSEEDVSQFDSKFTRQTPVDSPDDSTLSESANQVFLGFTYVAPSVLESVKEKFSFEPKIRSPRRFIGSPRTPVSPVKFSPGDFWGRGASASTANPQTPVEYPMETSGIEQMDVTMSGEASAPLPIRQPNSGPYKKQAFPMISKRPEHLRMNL
The experiment in a line: p70S6K (h) kinase assay (Upstate, 33P-ATP filtermat). The conditions noted are these: 100 uM of inhibitor, ATP 15 uM; for inhibition at 100 µM: read-out: P70S6 (h) % inhibition. Here is the method: as §1
(§3) In a final reaction volume of 25 μl, p70S6K (h) (5-10 mU) is incubated with 8 mM MOPS pH 7.0, 0.2 mM EDTA, 100 μM KKRNRTLTV, 10 mM MgAcetate and [[…]-33P-ATP] (specific activity approx. 500 cpm/pmol, concentration as required). The reaction is initiated by the addition of the MgATP mix. After incubation for 40 minutes at room temperature, the reaction is stopped by the addition of 5 μl of a 3% phosphoric acid solution. 10 μl of the reaction is then spotted onto a P30 filtermat and washed three times for 5 minutes in 75 mM phosphoric acid and once in methanol prior to drying and scintillation counting.
as §2

In the next assay the target is T3, Aurora-A (h) (Homo sapiens, UniProt O14965).
T3 construct: purchased Upstate Ltd
T3 sequence (O14965 1-403): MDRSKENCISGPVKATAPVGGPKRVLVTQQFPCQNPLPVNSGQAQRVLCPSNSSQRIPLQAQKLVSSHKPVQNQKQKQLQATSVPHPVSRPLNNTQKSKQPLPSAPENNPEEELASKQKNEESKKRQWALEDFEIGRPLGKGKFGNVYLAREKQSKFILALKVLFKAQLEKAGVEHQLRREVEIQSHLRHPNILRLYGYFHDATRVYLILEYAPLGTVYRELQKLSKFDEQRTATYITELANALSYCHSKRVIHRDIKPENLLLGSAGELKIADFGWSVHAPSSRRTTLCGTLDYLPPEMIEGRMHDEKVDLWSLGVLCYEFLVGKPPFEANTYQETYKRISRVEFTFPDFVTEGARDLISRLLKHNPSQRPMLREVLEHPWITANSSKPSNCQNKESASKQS
The experiment in a line: Aurora-A (h) kinase assay (Upstate, 33P-ATP filtermat). The conditions noted are these: 100 uM of inhibitor, ATP 15 uM; for inhibition at 100 µM: read-out: AuroraA (h) % inhibition. Here is the method:
as §1
In a final reaction volume of 25 μl, Aurora-A (h) (5-10 mU) is incubated with 8 mM MOPS pH 7.0, 0.2 mM EDTA, 200 μM LRRASLG (Kemptide), 10 mM MgAcetate and […]-33P-ATP] (specific activity approx. 500 cpm/pmol, concentration as required). The reaction is initiated by the addition of the MgATP mix. After incubation for 40 minutes at room temperature, the reaction is stopped by the addition of 5 μl of a 3% phosphoric acid solution. 10 μl of the reaction is then spotted onto a P30 filtermat and washed three times for 5 minutes in 50 mM phosphoric acid and once in methanol prior to drying and scintillation counting.
as §2

Another assay concerns the target T4, KDR (h) (Homo sapiens, UniProt P35968).
T4 construct: purchased Upstate Ltd
The experiment in a line: KDR (h) kinase assay (Upstate, 33P-ATP filtermat). Particulars: 100 uM of inhibitor; ATP 90 uM. As to the method:
as §1
as §3, with “KDR” for “p70S6K”, “0.33 mg/ml myelin basic protein,” for “100 μM KKRNRTLTV,”
as §2

For the next assay, the target named is T5, Abl (h) (Homo sapiens, UniProt P00519).
T5 construct: purchased Upstate Ltd
T5 sequence (P00519 whole entry): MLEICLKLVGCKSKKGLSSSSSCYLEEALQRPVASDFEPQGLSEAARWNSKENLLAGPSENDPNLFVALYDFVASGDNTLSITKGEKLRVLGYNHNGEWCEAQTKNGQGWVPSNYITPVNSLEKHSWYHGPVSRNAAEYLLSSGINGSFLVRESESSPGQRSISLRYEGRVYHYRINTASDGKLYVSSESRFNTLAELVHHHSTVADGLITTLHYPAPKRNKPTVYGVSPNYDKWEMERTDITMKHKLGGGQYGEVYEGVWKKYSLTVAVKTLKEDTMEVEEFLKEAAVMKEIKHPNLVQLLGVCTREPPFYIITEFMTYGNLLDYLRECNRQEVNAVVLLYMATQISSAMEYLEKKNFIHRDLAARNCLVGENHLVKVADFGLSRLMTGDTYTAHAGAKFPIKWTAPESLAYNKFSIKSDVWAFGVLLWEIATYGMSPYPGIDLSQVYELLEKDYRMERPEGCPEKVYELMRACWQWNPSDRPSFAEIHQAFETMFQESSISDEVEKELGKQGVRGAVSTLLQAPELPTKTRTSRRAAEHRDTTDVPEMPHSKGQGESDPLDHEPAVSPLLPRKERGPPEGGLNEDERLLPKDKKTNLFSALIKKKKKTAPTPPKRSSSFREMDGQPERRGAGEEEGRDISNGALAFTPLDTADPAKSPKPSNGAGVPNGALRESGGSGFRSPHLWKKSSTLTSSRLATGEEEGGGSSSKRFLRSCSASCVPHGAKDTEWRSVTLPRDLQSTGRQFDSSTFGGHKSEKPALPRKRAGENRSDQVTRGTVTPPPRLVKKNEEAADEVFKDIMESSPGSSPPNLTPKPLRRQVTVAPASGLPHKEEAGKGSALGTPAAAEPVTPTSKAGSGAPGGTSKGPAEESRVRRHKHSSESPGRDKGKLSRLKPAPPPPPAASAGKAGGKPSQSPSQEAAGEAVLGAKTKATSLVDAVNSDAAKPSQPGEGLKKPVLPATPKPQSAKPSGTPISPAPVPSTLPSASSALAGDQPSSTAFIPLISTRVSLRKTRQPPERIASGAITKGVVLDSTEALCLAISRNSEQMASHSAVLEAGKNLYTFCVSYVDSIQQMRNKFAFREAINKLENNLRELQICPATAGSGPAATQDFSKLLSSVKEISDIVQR
In words: Abl (h) kinase assay (Upstate, 33P-ATP filtermat). Particulars: 100 uM of inhibitor; ATP 45 uM. As to the method:
as §1
as §3, with “Abl” for “p70S6K”, “50” for “100”, “EAIYAAPFAKKK,” for “KKRNRTLTV,”
as §2

The next assay concerns the target T6, Arg (h) (Homo sapiens, UniProt P42684).
T6 construct: purchased Upstate Ltd
In words: Arg (h) kinase assay (Upstate, 33P-ATP filtermat). Particulars: 100 uM of inhibitor; ATP 45 uM. Here is the method:
as §1
as §3, with “Arg” for “p70S6K”, “50” for “100”, “EAIYAAPFAKKK,” for “KKRNRTLTV,”
as §2

T4 sequence (P35968 20-1356): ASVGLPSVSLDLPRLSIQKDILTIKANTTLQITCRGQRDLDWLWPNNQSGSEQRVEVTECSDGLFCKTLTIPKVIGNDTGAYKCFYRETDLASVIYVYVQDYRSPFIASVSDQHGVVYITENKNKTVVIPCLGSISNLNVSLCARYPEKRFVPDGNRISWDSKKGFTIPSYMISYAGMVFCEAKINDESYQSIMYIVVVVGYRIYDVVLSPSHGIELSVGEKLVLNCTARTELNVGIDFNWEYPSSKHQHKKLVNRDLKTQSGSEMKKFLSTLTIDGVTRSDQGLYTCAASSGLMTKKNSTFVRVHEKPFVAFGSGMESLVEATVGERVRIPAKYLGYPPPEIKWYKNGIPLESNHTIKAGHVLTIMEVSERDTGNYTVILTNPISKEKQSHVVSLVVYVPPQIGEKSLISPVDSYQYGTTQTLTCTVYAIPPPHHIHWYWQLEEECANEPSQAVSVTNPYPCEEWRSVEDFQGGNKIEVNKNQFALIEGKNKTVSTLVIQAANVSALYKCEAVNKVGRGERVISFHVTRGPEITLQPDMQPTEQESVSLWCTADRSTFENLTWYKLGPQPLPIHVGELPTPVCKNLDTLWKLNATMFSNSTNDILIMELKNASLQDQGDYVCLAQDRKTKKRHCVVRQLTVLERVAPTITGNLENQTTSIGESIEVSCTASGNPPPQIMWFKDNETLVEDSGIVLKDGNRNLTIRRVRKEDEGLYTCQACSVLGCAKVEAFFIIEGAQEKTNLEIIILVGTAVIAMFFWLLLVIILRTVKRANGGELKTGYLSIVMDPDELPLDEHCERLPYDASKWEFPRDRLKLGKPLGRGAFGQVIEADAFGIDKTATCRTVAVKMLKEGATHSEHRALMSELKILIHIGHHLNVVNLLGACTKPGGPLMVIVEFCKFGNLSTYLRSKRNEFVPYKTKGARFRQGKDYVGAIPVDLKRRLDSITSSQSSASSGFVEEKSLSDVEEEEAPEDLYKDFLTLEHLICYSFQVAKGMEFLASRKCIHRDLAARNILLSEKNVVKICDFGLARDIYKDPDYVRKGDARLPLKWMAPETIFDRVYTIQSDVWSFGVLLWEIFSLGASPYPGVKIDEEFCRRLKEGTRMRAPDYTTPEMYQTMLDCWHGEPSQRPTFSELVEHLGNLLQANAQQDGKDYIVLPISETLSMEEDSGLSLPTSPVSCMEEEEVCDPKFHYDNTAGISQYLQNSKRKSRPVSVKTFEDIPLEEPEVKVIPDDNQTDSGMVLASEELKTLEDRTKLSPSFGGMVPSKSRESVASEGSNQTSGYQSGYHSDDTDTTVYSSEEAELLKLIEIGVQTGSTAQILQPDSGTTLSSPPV
T6 sequence (P42684 whole entry): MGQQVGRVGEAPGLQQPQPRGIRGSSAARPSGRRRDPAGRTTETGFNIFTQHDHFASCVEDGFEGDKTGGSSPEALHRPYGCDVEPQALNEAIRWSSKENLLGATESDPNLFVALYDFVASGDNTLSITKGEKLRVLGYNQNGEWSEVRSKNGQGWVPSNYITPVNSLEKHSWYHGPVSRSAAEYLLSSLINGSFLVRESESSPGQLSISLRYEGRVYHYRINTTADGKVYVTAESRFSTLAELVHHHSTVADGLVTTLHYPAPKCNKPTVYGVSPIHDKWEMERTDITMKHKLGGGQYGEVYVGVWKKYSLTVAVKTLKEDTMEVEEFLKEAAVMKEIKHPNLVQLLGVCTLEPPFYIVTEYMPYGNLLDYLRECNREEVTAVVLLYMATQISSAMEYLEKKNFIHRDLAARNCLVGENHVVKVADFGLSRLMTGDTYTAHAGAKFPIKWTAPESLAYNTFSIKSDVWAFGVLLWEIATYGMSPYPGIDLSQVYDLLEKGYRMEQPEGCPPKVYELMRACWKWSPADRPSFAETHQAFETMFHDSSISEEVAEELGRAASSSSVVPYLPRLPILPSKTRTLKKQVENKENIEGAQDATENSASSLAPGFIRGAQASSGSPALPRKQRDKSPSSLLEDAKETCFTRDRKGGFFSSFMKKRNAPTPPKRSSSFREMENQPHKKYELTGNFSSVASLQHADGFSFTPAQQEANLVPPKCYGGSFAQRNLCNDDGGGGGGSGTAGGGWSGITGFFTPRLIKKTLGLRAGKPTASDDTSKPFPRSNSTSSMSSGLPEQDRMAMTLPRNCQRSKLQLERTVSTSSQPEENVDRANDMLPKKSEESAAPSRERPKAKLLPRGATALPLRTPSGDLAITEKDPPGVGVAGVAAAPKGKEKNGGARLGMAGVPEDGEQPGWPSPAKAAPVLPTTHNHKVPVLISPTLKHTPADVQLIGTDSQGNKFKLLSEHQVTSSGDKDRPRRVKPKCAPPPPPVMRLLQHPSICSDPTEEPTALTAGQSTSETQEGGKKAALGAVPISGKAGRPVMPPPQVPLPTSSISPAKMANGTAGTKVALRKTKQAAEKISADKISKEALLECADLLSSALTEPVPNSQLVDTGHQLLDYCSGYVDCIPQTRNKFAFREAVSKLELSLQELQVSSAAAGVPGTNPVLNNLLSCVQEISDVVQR

As to `[O-][n+]1nc(Nc2cccnc2)nc2ccccc21` [Example 4, (1-Oxy-benzo[1,2,4]triazin-3-yl)-pyridin-3-yl-amine], at CHK1 (h), the “Chk1 (h) % inhibition” value amounted to 14%. In addition, the “P70S6 (h) % inhibition” value at p70S6K (h) is listed as 0%. Moreover, the “AuroraA (h) % inhibition” value on Aurora-A (h) was 64%.
For the compound `CN(C)CCCOc1ccc(Cl)cc1NC(=O)Nc1nnc2ccccc2n1` [Example 9, 1-Benzo[1,2,4]triazin-3-yl-3-[5-chloro-2-(3-dimethylamino-propoxy)-phenyl]-urea], testing at 100 µM at CHK1 (h) gave an inhibition of 93%.
Turning to `Cc1cc(Nc2nc3ccccc3[n+]([O-])n2)n[nH]1` [Example 10, (5-Methyl-1H-pyrazol-3-yl)-(1-oxy-benzo[1,2,4]triazin-3-yl)-amine], the “Chk1 (h) % inhibition” value on CHK1 (h) is 20%. Besides, the “AuroraA (h) % inhibition” value at Aurora-A (h) was 40%.
Regarding `[O-][n+]1nc(-c2cn[nH]c2)nc2ccccc21` [Example 12, 3-(1H-Pyrazol-4-yl)-benzo[1,2,4]triazine 1-oxide], the inhibition at 100 µM at CHK1 (h) turned out to be 3%; against KDR (h), 97%; on p70S6K (h) it was 87%; on Aurora-A (h), 69%.
For `c1ccc2nc(-c3cn[nH]c3)nnc2c1` [Example 13, 3-(1H-Pyrazol-4-yl)-benzo[1,2,4]triazine], the inhibition at 100 µM on CHK1 (h) is 13%; at KDR (h) it was 80%; at p70S6K (h), 92%; at Aurora-A (h), 90%.
Turning to `Nc1nnc2cc(-c3ccn[nH]3)ccc2n1` [Example 14, 7-(2H-Pyrazol-3-yl)-benzo[1,2,4]triazin-3-ylamine], the inhibition at 100 µM worked out at 20% at CHK1 (h), 89% at KDR (h), 47% on p70S6K (h) and 81% on Aurora-A (h).
For `Nc1nc2ccc(-c3ccn[nH]3)cc2[n+]([O-])n1` [Example 15, 1-Oxy-7-(2H-pyrazol-3-yl)-benzo[1,2,4]triazin-3-ylamine], on CHK1 (h), the “Chk1 (h) % inhibition” value is reported as 10%. On KDR (h), the “KDR (h) % inhibition” value is given as 46%. Moreover, the “P70S6 (h) % inhibition” value at p70S6K (h) is recorded as 29%. In addition, the “AuroraA (h) % inhibition” value at Aurora-A (h) amounted to 90%.
Take `c1ccc2nc(-c3cc[nH]n3)nnc2c1` [Example 16, 3-(1H-Pyrazol-3-yl)-benzo[1,2,4]triazine]: the values for the inhibition at 100 µM on KDR (h), on p70S6K (h) and on Aurora-A (h) were 17%, 10% and 41%, respectively.
On the same counts, the results for `[O-][n+]1nc(-c2cc[nH]n2)nc2ccccc21` [Example 17, 3-(1H-Pyrazol-3-yl)-benzo[1,2,4]triazine 1-oxide] are 0%, 0% and 39%.
Consider `O=C(Nc1ccc2nncnc2c1)Nc1cnccn1` [Example 18, 1-Benzo[1,2,4]triazin-6-yl-3-pyrazin-2-yl-urea], for which 100 µM produced 23% inhibition against CHK1 (h).
Consider `c1ccc2nc(Nc3ccc(N4CCNCC4)nc3)nnc2c1` [Example 19, Benzo[1,2,4]triazin-3-yl-(6-piperazin-1-yl-pyridin-3-yl)-amine], for which the inhibition at 100 µM amounted to 89% on Abl (h), 95% on Arg (h) and 79% at Aurora-A (h).
On to `[O-][n+]1nc(Nc2cccnc2)nc2cc(Cl)ccc21` [Example 22, (6-Chloro-1-oxy-benzo[1,2,4]triazin-3-yl)-pyridin-3-yl-amine], for which the “AuroraA (h) % inhibition” value on Aurora-A (h) is 82%.
Turning to `[O-][n+]1nc(Nc2cccnc2)nc2cc(-c3ccccc3)ccc21` [Example 24, (1-Oxy-6-phenyl-benzo[1,2,4]triazin-3-yl)-pyridin-3-yl-amine], the “AuroraA (h) % inhibition” value on Aurora-A (h) amounted to 92%.
For the compound `Nc1nc2cc(N3CCNCC3)ccc2[n+]([O-])n1` [Example 25, 1-Oxy-6-piperazin-1-yl-benzo[1,2,4]triazin-3-ylamine], at KDR (h), the “KDR (h) % inhibition” value is reported as 18%. The “P70S6 (h) % inhibition” value on p70S6K (h) is on record as 43%.
On to `Nc1nnc2ccc(N3CCNCC3)cc2n1` [Example 26, 6-Piperazin-1-yl-benzo[1,2,4]triazin-3-ylamine], for which the inhibition at 100 µM was found to be 98% against KDR (h) and 37% at p70S6K (h).
For the compound `Cl.Nc1nc2cc(OCC3CCNCC3)ccc2[n+]([O-])n1` [Example 27, 1-Oxy-6-(piperidin-4-ylmethoxy)-benzo[1,2,4]triazin-3-ylamine.hydrochloride], the “KDR (h) % inhibition” value on KDR (h) came out at 3%. On p70S6K (h), the “P70S6 (h) % inhibition” value is 62%.
On to `Cl.Nc1nnc2ccc(OCC3CCNCC3)cc2n1` [Example 28, 6-(Piperidin-4-ylmethoxy)-benzo[1,2,4]triazin-3-ylamine.hydrochloride], for which, on KDR (h), the “KDR (h) % inhibition” value came out at 6%. For the same compound, the “P70S6 (h) % inhibition” value on p70S6K (h) is recorded as 47%.
`Nc1nc2cc(OCCc3ccc(Cl)c(Cl)c3)ccc2[n+]([O-])n1` [Example 29, 6-[2-(3,4-Dichloro-phenyl)-ethoxy]-1-oxy-benzo[1,2,4]triazin-3-ylamine]: the “KDR (h) % inhibition” value on KDR (h) is 0%. Besides, the “P70S6 (h) % inhibition” value on p70S6K (h) was 49%.
`Nc1nnc2ccc(OCCc3ccc(Cl)c(Cl)c3)cc2n1` [Example 30, 6-[2-(3,4-Dichloro-phenyl)-ethoxy]-benzo[1,2,4]triazin-3-ylamine]: the inhibition at 100 µM is 11% on KDR (h) and 52% on p70S6K (h).

In general, inhibition refers to the relative decrease from the control value, in per cent.

The record behind these values is patent publication US20080234276A1, “Heterocyclic Triazines as Hypoxic Selective Protein Kinase Inhibitors” (SENTINEL ONCOLOGY LIMITED, priority 2005, published 2008).
